Our source for the cell cycle arrest and mitotic spindle formation values is patent US20060046972A1, “Cytotoxic nucleoside analog compound 003 for treating cancer” (Parker Hughes Institute, priority 2004, published 2006).

Assay [1] concerns DT40, chicken B lymphoma. Briefly: DNA flow cytometry of cell cycle arrest, DT40. The format is cell-based. Particulars: 100 μM, 48 hour. On the procedure: Exponentially growing tumor cells were cultured at 1×10^6 cells/ml in clonogenic medium (RPMI 1640 medium +1% penicillin/streptomycin +10% heat-inactivated fetal bovine serum, 2 mML-glutamine, and 10 mM Hepes buffer) in the presence or absence of 100 μM compound 003 for 48 hour at 37° C., 5% CO2. At 48 h, cells were washed two times in fresh clonogenic medium, trypsinized, fixed in ice cold ethanol and labeled with propidium iodide to quantify their DNA content, as described previously (See, for example, Navara, et al., 2001, Anticancer Drugs. 12:369). Quantitative DNA analysis was performed on a Becton Dickenson Calibur flow cytometer equipped with a Consort 40 computer using the COTFIT program, which includes CELLCY, a cell cycle distribution function that fits DNA content histograms and calculates-the percentages of cells in G, S, and GM phases of the cell cycle, as described, for example, in Uckun et al., 1996, J Biol Chem. 271, 6389.

In assay [2] the test system is MDA-MB breast cancer cells. The assay is described as follows: Confocal laser scanning microscopy of mitotic spindle, MDA-MB. The format is cell-based, human. How it is done: (§1) Immunofluorenscence was used to examine the spindle features of human cancer cell lines treated with Compound 003 or 0.5% DMSO. Initially, cells at log phase were seeded onto sterile 22 mm coverslips in six -well culture plates. 24 hours later, the cells were treated with compound 003 for 2 hours at 37° C., 5% C02, fixed in methanol (−20° C. 15 min) followed by a 15 minute incubation with PBS +0.1.% Tx-100. The coverslips were incubated with antibodies raised against α-tubulin, γ-tubulin (Sigma Chemical Co., St Louis, Mo.) (40 min 37° C.), washed in PBS-Tx-100, and incubated with an appropriate secondary antibody conjugated to FITC (Jackson ImmunoResearch, Westgrove, Pa.). Cellular DNA was labeled with 5 μM TOTO3 (Molecular Probes, Eugene, Oreg.) for 20 minutes. Coverslips were immediately inverted onto slides in Vectashield (Vector Labs, Burlingame, Calif.) to prevent photobleaching, sealed with nail varnish and stored at −20° C. The slides were examined using a Bio-Rad MRC-1024 Laser Scanning Confocal Microscope equipped with a Kr/Ar laser (BioRad, Hercules, Calif.) mounted on a Nikon Eclipse E800 upright microscope with high numerical aperture objectives (Nikon, Melville, N.Y.). Digital data were processed using Lasersharp (BioRad) and Adobe Photoshop software (Adobe Systems, Mountain View, Calif.). […]

The test system of assay [3] is PC-3 prostate cancer cells. Briefly: Confocal laser scanning microscopy of mitotic spindle, PC-3. Type of assay: cell-based, human. Particulars: 100 μM. How it is done: as §1

On to `COC(=O)C(C)NP(=O)(OCC1OC(n2cc(C)c(=O)[nH]c2=O)CC1N=[N+]=[N-])Oc1ccc(OC)cc1` (stereo not drawn) [Compound 003, 3′-azidothymidine 5′-[p-methoxyphenylmethoxyalaninyl phosphate]], for which the cell cycle arrest entry in assay [1] is “caused G2 arrest”. Also, the results for the mitotic spindle formation entry in assay [2] and in assay [3] were “induced aberrant multipolar (instead of normal bipolar) spindle formation” and “induced aberrant multipolar spindle formation”, respectively.
